Reference: ChEMBL document CHEMBL5728279, “Toll-like receptor 7 (TLR7) agonists having a pyridine or pyrazine moiety, conjugates thereof, and methods and uses therefor” (2021)

Each compound was assayed against T1, Toll-like receptor 7 (Homo sapiens, UniProt Q9NYK1) (assay: HEK-Blue™ TLR7 cells were added to each well of a 384-well tissue-culture plate (15,000 cells per well) and incubated 16-18 h at 37° C., 5% CO2. Compounds (100 nl) were dispensed into wells containing the HEK-Blue™ TLR cells and the treated cells were incubated at 37° C., 5% CO2. After 18 h treatment ten microliters of freshly-prepared Quanti-Blue™ reagent (Invivogen) was added to each well, incubated for 30 min (37° C., 5% CO2) and SEAP levels measured using an Envision plate reader (OD=620 nm).).
T1 sequence (Q9NYK1 whole entry): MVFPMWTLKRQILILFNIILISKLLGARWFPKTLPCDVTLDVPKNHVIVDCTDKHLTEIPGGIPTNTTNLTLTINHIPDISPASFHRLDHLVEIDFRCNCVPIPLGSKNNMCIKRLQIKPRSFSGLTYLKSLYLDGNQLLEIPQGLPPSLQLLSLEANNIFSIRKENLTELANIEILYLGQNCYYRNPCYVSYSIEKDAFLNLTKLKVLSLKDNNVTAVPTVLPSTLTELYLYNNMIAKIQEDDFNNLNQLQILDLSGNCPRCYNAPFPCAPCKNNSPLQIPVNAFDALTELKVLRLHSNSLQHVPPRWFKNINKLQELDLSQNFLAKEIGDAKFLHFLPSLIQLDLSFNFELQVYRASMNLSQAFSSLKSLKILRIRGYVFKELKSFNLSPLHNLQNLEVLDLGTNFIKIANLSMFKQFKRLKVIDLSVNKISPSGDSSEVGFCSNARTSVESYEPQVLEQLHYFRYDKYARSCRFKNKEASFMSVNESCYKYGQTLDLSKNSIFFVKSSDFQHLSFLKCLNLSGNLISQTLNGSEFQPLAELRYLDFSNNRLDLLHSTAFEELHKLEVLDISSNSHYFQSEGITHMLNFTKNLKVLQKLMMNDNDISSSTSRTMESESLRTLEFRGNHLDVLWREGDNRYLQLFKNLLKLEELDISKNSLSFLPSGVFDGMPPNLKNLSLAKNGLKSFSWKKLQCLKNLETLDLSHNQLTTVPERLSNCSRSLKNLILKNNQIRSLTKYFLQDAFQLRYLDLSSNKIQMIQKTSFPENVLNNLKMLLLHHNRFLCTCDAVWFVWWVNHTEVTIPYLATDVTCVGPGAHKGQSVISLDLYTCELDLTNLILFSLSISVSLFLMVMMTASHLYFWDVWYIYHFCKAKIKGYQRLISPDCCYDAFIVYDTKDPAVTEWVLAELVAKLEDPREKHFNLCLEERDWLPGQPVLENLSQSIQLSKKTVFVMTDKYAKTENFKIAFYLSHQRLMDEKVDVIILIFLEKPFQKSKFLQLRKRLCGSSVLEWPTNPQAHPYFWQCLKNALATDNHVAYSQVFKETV

| Compound | EC50 [nM] |
| --- | --- |
| CCCCOc1nc(N)c2nc(O)n(Cc3ccc(CNCc4ccccc4)nc3)c2n1 | 110 |
| CCCCOc1nc(N)c2nc(O)n(Cc3ccc(CNCc4ccccc4)cn3)c2n1 | 22 |
| CCCCCCNCc1ccc(Cn2c(O)nc3c(N)nc(OCCCC)nc32)cn1 | 11 |

Compounds with a lower EC50, results first:

| EC50 [nM] | Compound |
| --- | --- |
| 4.9 | CCCCOc1nc(N)c2nc(O)n(Cc3ccc(CN4CCC(CN)CC4)nc3)c2n1 |
| 3.1 | CCCCOc1nc(N)c2nc(O)n(Cc3ccc(CN4CCC(N)CC4)nc3)c2n1 |
| 2.9 | CCCCOc1nc(N)c2nc(O)n(Cc3ccc(CNC4CCCC4)nc3)c2n1 |
